Laboratory results taken from US9677094B2, “Process of producing a fermentation product” (NOVOZYMES A/S, priority 2011, dated 2017).

Legend:
Fermentis Red Star yeast = test: Ethanol yield in fermentation (SSF) of liquefied corn mash, HPLC; type: cell-based; conditions: for EtOH: corn mash 32% DS
Experimental: Pyridoxamine (Sigma #P9380) was evaluated for its ability to increase ethanol yields from laboratory-made corn mash when added at the time of liquefaction or at the beginning of fermentation.
Liquefied mashes were made using corn and backset obtained from a commercial ethanol plant in the Midwestern United States (Corn LP, Goldfield, Iowa). All mashes contained 32% Dry Solids (DS) and were liquefied at a pH of 5.8 for 120 minutes in a water bath at 85° C., using the alpha-amylase product Liquozyme SC DS (Novozymes) at a dose of 0.02% w/w of corn. Experimental mashes were treated with pyridoxamine at doses of 10 micrograms/g DS and 50 micrograms/g DS of pyridoxamine in 110 g mash. During liquefaction, the mashes were shaken vigorously every 2 minutes for the first 20 minutes and again at 30 minute intervals until the total liquefaction time equaled 2 hours. All mashes were then frozen overnight.
To each thawed mash, urea was added to a final concentration of 1000 ppm, and penicillin was added to a final concentration of 3 ppm. To test the effects of pyridoxamine in simultaneous saccharification and fermentation (SSF), separate aliquots of liquefied mash were dosed with 10 micrograms/g DS and 50 micrograms/g DS of pyridoxamine, respectively. The mashes were fermented as follows:
For fermentation, between 4 and 5 grams of each mash was added to 6 pre-weighed tubes per treatment. […] One hundred microliters of Fermentis Red Star yeast (5.5 g yeast in 100 mL tap water incubated at 32° C. for 30 minutes) was added to each tube, and the gluocoamylase product Spirizyme Ultra™ (Novozymes) was added to each tube to achieve a dose of 0.5 AGU/g DS.
After 24 hours, one replicate from each mash was sacrificed for HPLC analysis using 50 microliters of 40% v/v H2SO4. The tubes were centrifuged at 1500×g for 10 minutes, and the supernatants were filtered using Whatman syringe filters with 0.45 micron membranes, then diluted 1:5 for HPLC analysis. The remaining samples were sacrificed after 54 hours in the same manner but were subjected to HPLC analysis without dilution. Ethanol and oligosaccharide concentrations were measured by HPLC using an HPX-87H column (Bio-Rad) heated to 65° C. with a mobile phase of 5 mM sulfuric acid at a flow rate of 0.6 ml/min, with refractive index detection at 50° C.

[1] = test system: initial stages of the Maillard reaction; conditions: conjugates of beta-lactoglobulin with galactose and tagatose; cited from earlier work
[2] = test system: streptozotocin-induced diabetic and Zucker obese rats; conditions: cited from earlier work
[3] = test system: advanced lipoxidation end-products on protein; conditions: during lipid peroxidation reactions; cited from earlier work
[4] = test system: glycation reactions and the formation of advanced glycation end products (AGEs); conditions: cited from earlier work

Question: Which “ethanol yield versus control” value (Fermentis Red Star yeast; addition at the beginning of SSF (after liquefaction)) does the source give for Cc1ncc(CO)c(CN)c1O [Pyridoxamine] here?
Answer: did not result in an increase in ethanol yield

Question: And the “ethanol yield versus control” value (Fermentis Red Star yeast; addition at the start of corn mash liquefaction, three of the four results (both doses of 10 and one dose of 50 micrograms/g DS))?
Answer: statistically significant increase in ethanol yield

Question: What about the EtOH (Fermentis Red Star yeast; experiment 1, dose 10 micrograms/g DS, addition point Liq (liquefaction)) of the same compound?
Answer: 12.19 w/v %

Question: What about the EtOH (Fermentis Red Star yeast; experiment 1, dose 10 micrograms/g DS, addition point SSF) of the same compound?
Answer: 11.89 w/v %

Question: What about the EtOH (Fermentis Red Star yeast; experiment 1, dose 50 micrograms/g DS, addition point Liq (liquefaction)) of the same compound?
Answer: 12.23 w/v %

Question: What about the EtOH (Fermentis Red Star yeast; experiment 1, dose 50 micrograms/g DS, addition point SSF) of the same compound?
Answer: 11.79 w/v %

Question: What about the EtOH (Fermentis Red Star yeast; experiment 2, dose 10 micrograms/g DS, addition point Liq (liquefaction)) of the same compound?
Answer: 12.01 w/v %

Question: And the EtOH (Fermentis Red Star yeast; experiment 2, dose 10 micrograms/g DS, addition point SSF)?
Answer: 11.75 w/v %

Question: And the EtOH (Fermentis Red Star yeast; experiment 2, dose 50 micrograms/g DS, addition point Liq (liquefaction))?
Answer: 11.86 w/v %

Question: What about the EtOH (Fermentis Red Star yeast; experiment 2, dose 50 micrograms/g DS, addition point SSF) of the same compound?
Answer: 11.75 w/v %

Question: What about the “effect on the initial stages of the Maillard reaction” value [1] of the same compound?
Answer: inhibitory effect

Question: What about the development of nephropathy ([2]; both animal models) of the same compound?
Answer: protects against the development of nephropathy

Question: And the lipid-lowering effect ([2]; streptozotocin-induced diabetic and Zucker obese rats)?
Answer: strong lipid-lowering effect

Question: What about the “formation of advanced lipoxidation end-products on protein” value [3] of the same compound?
Answer: inhibits

Question: And the “inhibition of glycation reactions and AGE formation” value [4]?
Answer: can inhibit
